We go through 53 compounds from ChEMBL document CHEMBL1148467, “Benzoxazinones as PPARgamma agonists. 2. SAR of the amide substituent and in vivo results in a type 2 diabetes model” (J Med Chem, 2004).

pEC50: −log10 of the molar value. A value given as a limit tells only on which side of the number the result lay.

Data set [1] is described as follows: Half-life in rat at 30 mg/kg dose administered orally. The following applies: in vivo, po.
The target in data set [2] is T1, Peroxisome proliferator-activated receptor gamma (Homo sapiens, UniProt P37231).
T1 sequence (P37231 whole entry): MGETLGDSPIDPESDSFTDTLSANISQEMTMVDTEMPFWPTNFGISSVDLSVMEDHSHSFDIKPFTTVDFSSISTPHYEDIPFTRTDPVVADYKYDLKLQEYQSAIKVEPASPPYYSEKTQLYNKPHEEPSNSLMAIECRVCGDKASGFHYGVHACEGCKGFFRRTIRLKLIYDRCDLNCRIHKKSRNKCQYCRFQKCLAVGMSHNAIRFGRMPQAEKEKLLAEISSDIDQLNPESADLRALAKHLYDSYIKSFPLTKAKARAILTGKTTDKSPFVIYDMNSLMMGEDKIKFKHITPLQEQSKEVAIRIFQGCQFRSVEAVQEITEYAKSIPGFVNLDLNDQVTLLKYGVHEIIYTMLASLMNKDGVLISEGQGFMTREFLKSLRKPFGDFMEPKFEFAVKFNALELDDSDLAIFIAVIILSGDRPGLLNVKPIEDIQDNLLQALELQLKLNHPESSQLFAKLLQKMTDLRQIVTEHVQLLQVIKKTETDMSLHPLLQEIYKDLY
Description: Agonistic activity against PPAR (peroxisome proliferator activated receptor gamma) in Suarus chinesis

Data set [3] is described as follows: Area under curve was evaluated in rat at 3 mg/kg dose administered intravenously. Format: ADME, organism-based. Also noted: dose 3 mg/kg, route intravenous. The following applies: in vivo, iv.
Data set [4] is described as follows: In vitro metabolic stability at 5 uM was determined by incubating with human liver microsomes at 37 degree C. Format: ADME, Microsome. A general note: Liver microsomes are vesicles of endoplasmic reticulum, rich in cytochrome P450 enzymes.
A short description of data set [5]: Oral bioavailability in rat (dose 30 mg/kg). In kind it is ADME, organism-based. The note with it: in vivo.
Data set [6] in a line: Area under curve was evaluated in rat at 30 mg/kg dose administered orally. The note with it: in vivo, po.

Broadly, the half-life is the time in which the quantity being followed falls by half. A high value points to slow loss. The pEC50 is −log10 of the EC50, conventionally taken in molar units. For orientation: AUC means the area under the concentration-time curve, a measure of exposure. A higher AUC goes with high exposure. `O=C(O)Cc1ccccc1OCCC1Oc2ccccc2N(CCCCCCF)C1=O` (centres undefined) had a half-life in data set [1] of 16 h. For the same compound, the negative-log EC50 (pEC50) in data set [2] is 6.93. Besides, the AUC in data set [3] was found to be 84 µM·h. The compound also gave a half-life at 5 µM in data set [4] of 1.27 h. In data set [5], the bioavailability worked out at 100%.
In turn, `CN1C(=O)C(CCOc2ccccc2CC(=O)O)Oc2ccccc21` (centres undefined) had a pEC50 in data set [2] of less than 5.30.
The same measure, in the same setting: the figure for `CNC(=O)CCCN1C(=O)C(CCOc2ccccc2CC(=O)O)Oc2ccccc21` (centres undefined) is less than 5.30.
As for `COCCCCN1C(=O)[C@@H](CCOc2ccccc2CC(=O)O)Oc2ccccc21`, the half-life in data set [1] is 6.7 h. Also, the negative logarithm of the EC50 (pEC50) in data set [2] is 6.56. In addition, the AUC in data set [3] turned out to be 88 µM·h. The half-life at 5 µM in data set [4] is more than 8.33 h. In data set [5], the bioavailability is 41%.
In turn, `CC(C)N1C(=O)C(CCOc2ccccc2CC(=O)O)Oc2ccccc21` (centres undefined) showed a pEC50 in data set [2] of less than 5.30.
In the case of `CC(O)CCCCN1C(=O)C(CCOc2ccccc2CC(=O)O)Oc2ccccc21` (centres undefined), the pEC50 in data set [2] was 6.00.
For `CCCCCCN1C(=O)[C@H](CCOc2ccccc2CC(=O)O)Oc2ccccc21`, the pEC50 in data set [2] was 5.92.
`CCCN1C(=O)C(CCOc2ccccc2CC(=O)O)Oc2ccccc21` (centres undefined): the negative-log EC50 (pEC50) in data set [2] is approximately 5.30.
On to `CC(C)CN1C(=O)C(CCOc2ccccc2CC(=O)O)Oc2ccccc21` (centres undefined), for which the pEC50 in data set [2] was approximately 5.30.
Compound `O=C(O)Cc1ccccc1OCCC1Oc2ccccc2N(CCCCCCCO)C1=O` (centres undefined) gave a half-life in data set [1] of 7 h. In data set [2], this compound had a pEC50 of 6.83. This compound also had an AUC in data set [3] of 2.3 µM·h. Further, in data set [4], the half-life at 5 µM was 1.27 h. Also, the bioavailability in data set [5] was determined as 13%.
Consider `CC(C)(O)CCCCN1C(=O)C(CCOc2ccccc2CC(=O)O)Oc2ccccc21` (centres undefined), for which the pEC50 in data set [2] is 6.19.
`CC(F)(F)CCCCN1C(=O)[C@H](CCOc2ccccc2CC(=O)O)Oc2ccccc21` gave a pEC50 in data set [2] of 6.00. This pEC50 and that of the compound before are within 0.2 log units of each other.
In the case of `CCCNC(=O)CN1C(=O)C(CCOc2ccccc2CC(=O)O)Oc2ccccc21` (centres undefined), in data set [2], the pEC50 is less than 5.30.
The compound `CC(F)(F)CCCCCN1C(=O)C(CCOc2ccccc2CC(=O)O)Oc2ccccc21` (centres undefined) had a pEC50 in data set [2] of 6.27.
On the same count and under the same terms, the figure for `CCCCN1C(=O)C(CCOc2ccccc2CC(=O)O)Oc2ccccc21` (centres undefined) is approximately 5.30; for `CCCCCCCN1C(=O)C(CCOc2ccccc2CC(=O)O)Oc2ccccc21` (centres undefined) it is 6.63.
As to `CCCCCCN1C(=O)C(CCOc2ccccc2CC(=O)O)Oc2ccccc21` (centres undefined), the half-life in data set [1] is 14 h. Moreover, the pEC50 in data set [2] was 7.00. Moreover, the AUC in data set [6] came out at 406 µM·h. In data set [4], the half-life at 5 µM is 0.883 h. Also, the bioavailability in data set [5] stood at 115%.
In data set [2], `O=C(O)Cc1ccccc1OCCC1Oc2ccccc2N(CC(=O)O)C1=O` (centres undefined) showed a pEC50 of less than 5.30.
In turn, `CCCCCCN1C(=O)[C@@H](CCOc2ccccc2CC(=O)O)Oc2ccccc21` showed a half-life in data set [1] of 14.5 h. Further, the pEC50 in data set [2] was 7.00. For the same compound, in data set [3], the AUC turned out to be 327 µM·h. In data set [4], this compound gave a half-life at 5 µM of 1.22 h. The bioavailability in data set [5] is 95%.
In turn, `CC(C)(CCCCN1C(=O)C(CCOc2ccccc2CC(=O)O)Oc2ccccc21)C(=O)O` (centres undefined) gave a negative-log EC50 (pEC50) in data set [2] of 6.00.
Compound `CCOCCCN1C(=O)C(CCOc2ccccc2CC(=O)O)Oc2ccccc21` (centres undefined) had a negative-log EC50 (pEC50) in data set [2] of approximately 5.30.
In data set [1], `C/C(CCCCN1C(=O)C(CCOc2ccccc2CC(=O)O)Oc2ccccc21)=N\O` (centres undefined) gave a half-life of 4.2 h. The same compound gave a pEC50 in data set [2] of 8.00. This compound also came in with an AUC in data set [3] of 19.9 µM·h. In data set [4], this compound came in with a half-life at 5 µM of 2.47 h. In data set [5], the bioavailability was determined as 16%.
The compound `C=CCCCCN1C(=O)C(CCOc2ccccc2CC(=O)O)Oc2ccccc21` (centres undefined) gave a pEC50 in data set [2] of 6.68.
In data set [2], `CCCCCN1C(=O)C(CCOc2ccccc2CC(=O)O)Oc2ccccc21` (centres undefined) showed a pEC50 of 6.61.
As for `O=C(O)CCCCN1C(=O)C(CCOc2ccccc2CC(=O)O)Oc2ccccc21` (centres undefined), the pEC50 in data set [2] was less than 5.30.
In data set [2], `CC(=O)CCCCCN1C(=O)C(CCOc2ccccc2CC(=O)O)Oc2ccccc21` (centres undefined) gave a negative logarithm of the EC50 (pEC50) of 6.58.
`NC(=O)CCCCN1C(=O)C(CCOc2ccccc2CC(=O)O)Oc2ccccc21` (centres undefined) gave a pEC50 in data set [2] of less than 5.30.
In turn, `O=C(O)CCCCCN1C(=O)C(CCOc2ccccc2CC(=O)O)Oc2ccccc21` (centres undefined) had a pEC50 in data set [2] of less than 5.30.
Same read-out and setting: the figure for `CCCCCCCCN1C(=O)C(CCOc2ccccc2CC(=O)O)Oc2ccccc21` (centres undefined) is 6.52; for `CC(F)(F)CCCCN1C(=O)C(CCOc2ccccc2CC(=O)O)Oc2ccccc21` (centres undefined) it is 6.75.
`O=C(O)Cc1ccccc1OCCC1Oc2ccccc2N(CCC2CCCCC2)C1=O` (centres undefined) showed a pEC50 in data set [2] of 6.52. This pEC50 lies 0.23 log units lower than the previous one.
`NC(=O)CCCCCN1C(=O)C(CCOc2ccccc2CC(=O)O)Oc2ccccc21` (centres undefined) gave a pEC50 in data set [2] of approximately 5.30.
The compound `O=C(O)Cc1ccccc1OCC[C@H]1Oc2ccccc2N(CCCCCCF)C1=O` gave a half-life in data set [1] of 7.9 h. The same compound gave a pEC50 in data set [2] of 6.82. This compound also gave an AUC in data set [3] of 93 µM·h. In data set [4], this compound came in with a half-life at 5 µM of 1.85 h. The bioavailability in data set [5] came to 39%.
For `CS(=O)(=O)NCCCCCCN1C(=O)C(CCOc2ccccc2CC(=O)O)Oc2ccccc21` (centres undefined), the pEC50 in data set [2] was less than 5.30.
Still for that read-out and setting: to `O=C(O)Cc1ccccc1OCCC1Oc2ccccc2N(CCCCCO)C1=O` (centres undefined) belongs 6.00.
In data set [2], `O=C(O)Cc1ccccc1OCCC1Oc2ccccc2N(CCCC2CCCC2)C1=O` (centres undefined) had a pEC50 of 5.57.
With `CC(=O)CCCCN1C(=O)C(CCOc2ccccc2CC(=O)O)Oc2ccccc21` (centres undefined), the half-life in data set [1] was 9.8 h. The same compound showed a pEC50 in data set [2] of 6.59. In data set [3], this compound showed an exposure (AUC) of 5.8 µM·h. The compound further registered a half-life at 5 µM in data set [4] of 0.85 h. Also, in data set [5], the bioavailability came to 27%.
With `O=C(O)Cc1ccccc1OCC[C@@H]1Oc2ccccc2N(CCCCCCF)C1=O`, in data set [2], the pEC50 is 6.24.
The same measure, in the same setting: the figure for `CC(C)(C#N)CCCCN1C(=O)C(CCOc2ccccc2CC(=O)O)Oc2ccccc21` (centres undefined) is 6.44; for `CC(C)(C)CCCCN1C(=O)C(CCOc2ccccc2CC(=O)O)Oc2ccccc21` (centres undefined) it is 6.00; for `O=C(O)Cc1ccccc1OCCC1Oc2ccccc2N(CCC2CCCC2)C1=O` (centres undefined) it is approximately 5.30.
`CCCSCCN1C(=O)C(CCOc2ccccc2CC(=O)O)Oc2ccccc21` (centres undefined) showed a pEC50 in data set [2] of 6.42.
The compound `O=C(O)Cc1ccccc1OCCC1Oc2ccccc2N(CCO)C1=O` (centres undefined) had a pEC50 in data set [2] of less than 5.30.
Compound `CC(=O)NCCCCCCN1C(=O)C(CCOc2ccccc2CC(=O)O)Oc2ccccc21` (centres undefined) gave a negative logarithm of the EC50 (pEC50) in data set [2] of less than 5.30.
Consider `CO/N=C(\C)CCCCN1C(=O)C(CCOc2ccccc2CC(=O)O)Oc2ccccc21` (centres undefined), for which the pEC50 in data set [2] is approximately 5.30.
`CCCCCCCCCCN1C(=O)C(CCOc2ccccc2CC(=O)O)Oc2ccccc21` (centres undefined) had a pEC50 in data set [2] of 6.00.
The compound `CC(F)(F)CCCCN1C(=O)[C@@H](CCOc2ccccc2CC(=O)O)Oc2ccccc21` had a pEC50 in data set [2] of 6.53.
Regarding `COCCCCN1C(=O)C(CCOc2ccccc2CC(=O)O)Oc2ccccc21` (centres undefined), the pEC50 in data set [2] was 6.56. This pEC50 and that of the compound before are within 0.2 log units of each other.
For the compound `CC(C)CCCCN1C(=O)C(CCOc2ccccc2CC(=O)O)Oc2ccccc21` (centres undefined), the pEC50 in data set [2] is 7.10.
For `O=C(O)Cc1ccccc1OCCC1Oc2ccccc2N(CCCCCCCF)C1=O` (centres undefined), in data set [2], the pEC50 is 6.14. Against the preceding compound, the pEC50 is 0.96 log units lower.
For `CCN1C(=O)C(CCOc2ccccc2CC(=O)O)Oc2ccccc21` (centres undefined), the pEC50 in data set [2] is less than 5.30.
Consider `CCCCCCCCCN1C(=O)C(CCOc2ccccc2CC(=O)O)Oc2ccccc21` (centres undefined), for which, in data set [2], the pEC50 was approximately 5.30.
As to `O=C(O)Cc1ccccc1OCCC1Oc2ccccc2N(CCCCCCO)C1=O` (centres undefined), the half-life in data set [1] was 0.6 h. The compound further had a pEC50 in data set [2] of 6.70. For the same compound, the AUC in data set [3] came to 2.5 µM·h. For the same compound, in data set [4], the half-life at 5 µM was determined as 0.95 h. For the same compound, the bioavailability in data set [5] amounted to 4%.
